According to PubChem BioAssay AID248 (DTP/NCI, 2004):
Values joined by “and” are separate entries in the source; they are usually repeats but may differ in a detail not shown here. Identical values can stand only once. Inconclusive results and toxic doses are left out. No stated cut-off is given here; in the data, active means T/C of 150% or more; inactive means T/C below 125%.

System: L1210 leukemia ip in BDF1 mice, survival T/C
Experiment: NCI In Vivo Anticancer Drug Screen. Data for tumor model L1210 Leukemia (intraperitoneal) in B6D2F1 (BDF1) mice
Details: endpoint: mean survival time, higher = longer survival
Procedure, shortened: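 Ratio derived from survival: compound-dosed mice over vehicle-dosed mice, all bearing a transplantable tumor.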

[1] = dose: 100.0 mg/kg/injection, schedule: Q04DX003 (ip), vehicle: saline
[2] = dose: 200.0 mg/kg/injection, schedule: Q04DX003 (ip), vehicle: saline
[3] = dose: 400.0 mg/kg/injection, schedule: Q04DX003 (ip), vehicle: saline
[4] = dose: 100.0 mg/kg/injection, schedule: Q04DX003 (ip), vehicle: Klucel (hydroxypropylcellulose) (HPC)
[5] = dose: 200.0 mg/kg/injection, schedule: Q04DX003 (ip), vehicle: Klucel (hydroxypropylcellulose) (HPC)
[6] = dose: 400.0 mg/kg/injection, schedule: Q04DX003 (ip), vehicle: Klucel (hydroxypropylcellulose) (HPC)
[7] = dose: 100.0 mg/kg/injection, schedule: Q04DX002 (ip), vehicle: saline
[8] = dose: 200.0 mg/kg/injection, schedule: Q04DX002 (ip), vehicle: saline
[9] = dose: 400.0 mg/kg/injection, schedule: Q04DX002 (ip), vehicle: saline
[10] = dose: 50.0 mg/kg/injection, schedule: Q01DX001 (ip), vehicle: saline
[11] = dose: 100.0 mg/kg/injection, schedule: Q01DX001 (ip), vehicle: saline
[12] = dose: 200.0 mg/kg/injection, schedule: Q01DX001 (ip), vehicle: saline
[13] = dose: 400.0 mg/kg/injection, schedule: Q01DX001 (ip), vehicle: saline
[14] = dose: 100.0 mg/kg/injection, schedule: Q01DX001 (ip), vehicle: carboxymethylcellulose (CMC)
[15] = dose: 200.0 mg/kg/injection, schedule: Q01DX001 (ip), vehicle: carboxymethylcellulose (CMC)
[16] = dose: 400.0 mg/kg/injection, schedule: Q01DX001 (ip), vehicle: carboxymethylcellulose (CMC)
[17] = dose: 100.0 mg/kg/injection, schedule: Q01DX009 (ip), vehicle: saline
[18] = dose: 200.0 mg/kg/injection, schedule: Q01DX009 (ip), vehicle: saline
[19] = dose: 100.0 mg/kg/injection, schedule: Q01DX009 (ip), vehicle: Klucel (hydroxypropylcellulose) (HPC)
[20] = dose: 400.0 mg/kg/injection, schedule: Q01DX009 (ip), vehicle: Klucel (hydroxypropylcellulose) (HPC)
[21] = dose: 25.0 mg/kg/injection, schedule: Q01DX009 (ip), vehicle: saline
[22] = dose: 50.0 mg/kg/injection, schedule: Q01DX009 (ip), vehicle: saline
[23] = dose: 50.0 mg/kg/injection, schedule: Q04DX003 (ip), vehicle: saline

Measured: T/C

Clc1ccc(Cl)c(-c2csc(Nc3cccnc3)n2)c1
inactive: [1] 92 % of control | [2] 94 % of control | [3] 97 % of control

COc1ccc(C(=O)c2ccccc2)cc1OC
inactive: [4] 89 % of control | [5] 90 % of control | [6] 89 % of control

CCOCCOCCOC(C)Oc1ccc(C(C)C)cc1 (configuration not stated)
inactive: [7] 93 % of control | [8] 104 % of control | [9] 101 % of control

Cc1ccc(C(=O)Nc2ccc([N+](=O)[O-])cc2)cc1
inactive: [4] 88 % of control | [5] 100 % of control | [6] 98 % of control

COc1ccc(C)cc1CCCO
inactive: [10] 101 % of control | [11] 101 % of control | [12] 101 % of control | [13] 93 % of control

O=c1[nH]cc(COCC(F)(F)F)c(=O)[nH]1
inactive: dose: 50.0 mg/kg/injection, schedule: Q01DX005 (ip), vehicle: other 106 % of control | dose: 100.0 mg/kg/injection, schedule: Q01DX005 (ip), vehicle: other 95 % of control | dose: 200.0 mg/kg/injection, schedule: Q01DX005 (ip), vehicle: other 106 % of control

ClCCN(CCCl)c1ccc(C=NCCCN=Cc2ccc(N(CCCl)CCCl)cc2Cl)c(Cl)c1
inactive: [14] 97 % of control | [15] 92 % of control | [16] 95 % of control

O=C(Nc1cccc(F)c1)Nc1ccc(C(=O)O)c(O)c1
inactive: dose: 100.0 mg/kg/injection, schedule: Q01DX009 (ip), vehicle: saline with Tween-80 91 % of control | dose: 200.0 mg/kg/injection, schedule: Q01DX009 (ip), vehicle: saline with Tween-80 95 % of control

CN(C)CCN(C)Cc1cc(=O)[nH]c(=O)[nH]1
inactive: [1] 96 % of control | [2] 100 % of control | [3] 100 % of control

C(=N\c1ncn[nH]1)/Nc1ncn[nH]1
inactive: [1] 94 % of control | [2] 96 % of control

O=C(O)c1ccc(S(=O)(=O)O)cc1
inactive: [17] 100 % of control | [18] 97 % of control | dose: 400.0 mg/kg/injection, schedule: Q01DX009 (ip), vehicle: saline 101 % of control

CC(C)(C)C1CCC(NC(=O)CCl)CC1 (configuration not stated)
inactive: dose: 50.0 mg/kg/injection, schedule: Q04DX003 (ip), vehicle: Klucel (hydroxypropylcellulose) (HPC) 98 % of control | [19] 103 % of control | [4] 96 % of control | [5] 102 % of control | [20] 94 % of control | [6] 104 % of control

Cc1ccc(SCCn2cnc3c(ncn3Cc3ccccc3)c2=S)cc1
inactive: dose: 100.0 mg/kg/injection, schedule: Q04DX003 (ip), vehicle: saline with Tween-80 96 % of control | dose: 200.0 mg/kg/injection, schedule: Q04DX003 (ip), vehicle: saline with Tween-80 109 % of control | dose: 400.0 mg/kg/injection, schedule: Q04DX003 (ip), vehicle: saline with Tween-80 101 % of control

CCCCCCCCCCCCCCCCOCCCCCCCCCCCCCCCC
inactive: [19] 96 % of control | dose: 100.0 mg/kg/injection, schedule: Q04DX003 (ip), vehicle: other 103 % of control | dose: 200.0 mg/kg/injection, schedule: Q01DX009 (ip), vehicle: Klucel (hydroxypropylcellulose) (HPC) 100 % of control | dose: 200.0 mg/kg/injection, schedule: Q04DX003 (ip), vehicle: other 88 % of control | [20] 91 % of control | dose: 400.0 mg/kg/injection, schedule: Q04DX003 (ip), vehicle: other 95 % of control

NOCCCCON
inactive: [21] 98 % of control and 103 % of control | dose: 25.0 mg/kg/injection, schedule: Q04DX002 (ip), vehicle: saline 93 % of control and 97 % of control | [22] 95 % of control and 97 % of control | dose: 50.0 mg/kg/injection, schedule: Q04DX002 (ip), vehicle: saline 96 % of control and 101 % of control | [23] 98 % of control | [11] 101 % of control | [17] 100 % of control [middle of 4 runs] | [7] 93 % of control and 94 % of control | [1] 95 % of control | [12] 102 % of control | [18] 95 % of control and 102 % of control | [8] 96 % of control and 105 % of control | [2] 93 % of control | [13] 104 % of control | [9] 98 % of control and 110 % of control

O=C(O)c1ccc(SSc2ccc(C(=O)O)cc2)cc1
inactive: dose: 25.0 mg/kg/injection, schedule: Q01DX009 (ip), vehicle: carboxymethylcellulose (CMC) 93 % of control and 100 % of control | dose: 25.0 mg/kg/injection, schedule: Q04DX002 (ip), vehicle: carboxymethylcellulose (CMC) 96 % of control and 103 % of control | dose: 50.0 mg/kg/injection, schedule: Q01DX009 (ip), vehicle: carboxymethylcellulose (CMC) 97 % of control and 98 % of control | dose: 50.0 mg/kg/injection, schedule: Q04DX002 (ip), vehicle: carboxymethylcellulose (CMC) 94 % of control and 90 % of control | dose: 50.0 mg/kg/injection, schedule: Q04DX003 (ip), vehicle: carboxymethylcellulose (CMC) 98 % of control and 89 % of control | [14] 93 % of control and 88 % of control | dose: 100.0 mg/kg/injection, schedule: Q01DX009 (ip), vehicle: carboxymethylcellulose (CMC) 92 % of control and 94 % of control and 100 % of control | dose: 100.0 mg/kg/injection, schedule: Q04DX003 (ip), vehicle: carboxymethylcellulose (CMC) 110 % of control and 89 % of control | [15] 97 % of control and 100 % of control | dose: 200.0 mg/kg/injection, schedule: Q04DX002 (ip), vehicle: carboxymethylcellulose (CMC) 97 % of control | dose: 200.0 mg/kg/injection, schedule: Q04DX003 (ip), vehicle: carboxymethylcellulose (CMC) 88 % of control and 91 % of control | [16] 110 % of control

COC(=O)c1ccc(NCC(C)(C)N)cc1
inactive: dose: 12.0 mg/kg/injection, schedule: Q01DX001 (ip), vehicle: saline 94 % of control | dose: 12.0 mg/kg/injection, schedule: Q01DX009 (ip), vehicle: saline 98 % of control | dose: 12.0 mg/kg/injection, schedule: Q04DX003 (ip), vehicle: saline 97 % of control | dose: 25.0 mg/kg/injection, schedule: Q01DX001 (ip), vehicle: saline 96 % of control | [21] 105 % of control | dose: 25.0 mg/kg/injection, schedule: Q04DX003 (ip), vehicle: saline 104 % of control | [10] 101 % of control | [22] 93 % of control | [23] 97 % of control

C=C(C)C1CC=C(/C=N/O)CC1 (configuration not stated)
inactive: [11] 104 % of control | dose: 100.0 mg/kg/injection, schedule: Q01DX009 (ip), vehicle: saline sonified 104 % of control | [4] 96 % of control | [12] 101 % of control | dose: 200.0 mg/kg/injection, schedule: Q01DX009 (ip), vehicle: saline sonified 97 % of control | [5] 98 % of control | [13] 95 % of control | dose: 400.0 mg/kg/injection, schedule: Q01DX009 (ip), vehicle: saline sonified 97 % of control | [6] 98 % of control
